# Test system: patients with hypercholesterolemia at high CV risk not adequately controlled with atorvastatin (20 mg or 40 mg)
# Experiment: Example 2: randomized, double-blind trial, lipid efficacy of mAb316P add-on to atorvastatin vs EZE add-on, atorvastatin dose doubling or switch to rosuvastatin
# Assay type: in vivo, human
# Details: for LDL-C W24 % change from baseline, LS mean (SE): ITT population, treatment arm as labelled; for LDL-C W24 % change from baseline, LS mean (SE) / reduced LDL-C levels by / Proportion of Patients Reaching LDL-C goal (%): week 24; for reduced LDL-C levels by: add-on mAb316P; for Proportion of Patients Reaching LDL-C goal (%): calculated LDL-C <70 mg/dL very high risk or <100 mg/dL high risk, combined estimate
# Description: The present study was a randomized, double-blind, active-comparator, parallel-group study in patients at high CV risk with non-FH or heFH who are not adequately controlled with atorvastatin (20 mg or 40 mg) with or without other lipid-modifying therapy (LMT) (excluding EZE). The study design is illustrated in FIG. 1. Patients who entered the study were taking either atorvastatin 20 mg or atorvastatin 40 mg. The former patients were randomized to 1 of 3 treatment arms (arms 1 to 3); the latter patients were randomized to 1 of 4 treatment arms (arms 4 to 7). The treatment arms are as follows:
# (1) mAb316P+atorvastatin 20 mg+placebo-EZE; (2) Placebo-mAb316P+atorvastatin 40 mg+placebo-EZE; and (3) Placebo-mAb316P+atorvastatin 20 mg+EZE 10 mg.
# (4) mAb316P+atorvastatin 40 mg+placebo-EZE; (5) Placebo-mAb316P+atorvastatin 80 mg+placebo-EZE; (6). Placebo-mAb316P+rosuvastatin 40 mg+placebo-EZE; and (7) Placebo-mAb316P+atorvastatin 40 mg+EZE 10 mg.
# (B) a double-blind treatment period of 24 weeks. Each patient received a SC injection Q2W (mAb316P or placebo-mAb316P) and was administered (or instructed to take) 2 oral blinded medications daily (a statin [atorvastatin or rosuvastatin] and EZE or placebo-EZE). The first injection of mAb316P or placebo-mAb316P was administered at the clinical site on day 1, after study assessments were completed, and as soon as possible after the patient was randomized into the study. The patient/caregiver administered subsequent injections outside of the clinic according to the dosing schedule. On days where the clinic study visit coincided with dosing, the dose of study drugs (injectable and oral) were administered after all study assessments had been performed and all laboratory samples collected. The last dose of mAb316P or placebo-mAb316P was administered at week 22. The last dose of daily oral study drugs was administered at week 24. At week 12, based on their baseline CV risk, certain patients randomized to mAb316P in a blinded manner, had their dose increased as follows:
# Each patient received a subcutaneous (SC) injection once every two weeks (Q2W) (mAb316P or placebo-mAb316P) and took 2 oral blinded medications daily (a statin [atorvastatin or rosuvastatin] and EZE or placebo-EZE).
# The injectable study treatment was a single SC injection of 1 mL for a 75 mg or 150 mg dose of mAb316P or placebo-mAb316P provided in an auto-injector, administered in the abdomen, thigh, or outer area of the upper arm. The first injection of study drug was administered at the clinical site, as soon as possible after the patient was randomized into the study. The patient was monitored at the clinical site for at least 30 minutes following the first injection. The patient/caregiver administered subsequent injections outside of the clinic, according to the dosing schedule. On days where the clinic study visit coincided with dosing, the dose of study drug was administered after all study assessments have been performed and all laboratory samples collected.
# The dose of mAb316P was increased, in a blinded manner, from 75 mg to 150 mg SC Q2W, starting at week 12, based on baseline CV risk in the following circumstances:
# The primary efficacy endpoint was the percent change in calculated LDL-C from baseline to week 24, which is defined as: 100× (calculated LDL-C value at week 24−calculated LDL-C value at baseline)/calculated LDL-C value at baseline. The baseline calculated LDL-C value was the last LDL-C level obtained before the first double-blind study drug injection. The calculated LDL-C at week 24 will be the LDL-C level obtained within the week 24 analysis window and during the main efficacy period. The main efficacy period was defined as the time from the first double-blind study drug injection up to 21 days after the last double-blind study drug injection or up to the upper limit of the week 24 analysis window, whichever comes first.
# Total-C, HDL-C, TG, ApoB, ApoA-1, and Lp (a) were directly measured by a central laboratory. […]
compound,measurement,setting,value
"CC(C)c1c(C(=O)Nc2ccccc2)c(-c2ccccc2)c(-c2ccc(F)cc2)n1CC[C@@H](O)C[C@@H](O)CC(=O)O [atorvastatin, reference compound]","LDL-C W24 % change from baseline, LS mean (SE)",listed as ATV 40,−5.0%
same,"LDL-C W24 % change from baseline, LS mean (SE)",listed as ATV 80,−4.8%
same,"Calculated LDL-C LS mean (SE), % Change from Baseline","Week 4, listed as ATV 40",−9.9 (3.4) %
same,"Calculated LDL-C LS mean (SE), Change from Baseline","Week 4, listed as ATV 40",−12.9 (3.6)
same,"Calculated LDL-C LS mean (SE), Value (mg/dL)","Week 4, listed as ATV 40",88.9 (3.6) mg/dL
same,"Calculated LDL-C LS mean (SE), % Change from Baseline","Week 4, listed as ATV 80",−11.7 (2.7) %
same,"Calculated LDL-C LS mean (SE), Change from Baseline","Week 4, listed as ATV 80",−15.3 (2.9)
same,"Calculated LDL-C LS mean (SE), Value (mg/dL)","Week 4, listed as ATV 80",93.4 (2.9) mg/dL
same,"Calculated LDL-C LS mean (SE), % Change from Baseline","Week 8, listed as ATV 40",−12.6 (3.8) %
same,"Calculated LDL-C LS mean (SE), Change from Baseline","Week 8, listed as ATV 40",−15.1 (4.1)
same,"Calculated LDL-C LS mean (SE), Value (mg/dL)","Week 8, listed as ATV 40",86.7 (4.1) mg/dL
same,"Calculated LDL-C LS mean (SE), % Change from Baseline","Week 8, listed as ATV 80",−13.1 (3.1) %
same,"Calculated LDL-C LS mean (SE), Change from Baseline","Week 8, listed as ATV 80",−17.2 (3.2)
same,"Calculated LDL-C LS mean (SE), Value (mg/dL)","Week 8, listed as ATV 80",91.5 (3.2) mg/dL
same,"Calculated LDL-C LS mean (SE), % Change from Baseline","Week 12, listed as ATV 40",−8.5 (3.9) %
same,"Calculated LDL-C LS mean (SE), Change from Baseline","Week 12, listed as ATV 40",−11.9 (4.3)
same,"Calculated LDL-C LS mean (SE), Value (mg/dL)","Week 12, listed as ATV 40",89.9 (4.3) mg/dL
same,"Calculated LDL-C LS mean (SE), % Change from Baseline","Week 12, listed as ATV 80",−14.5 (3.2) %
same,"Calculated LDL-C LS mean (SE), Change from Baseline","Week 12, listed as ATV 80",−17.9 (3.4)
same,"Calculated LDL-C LS mean (SE), Value (mg/dL)","Week 12, listed as ATV 80",90.8 (3.4) mg/dL
same,"Calculated LDL-C LS mean (SE), % Change from Baseline","Week 16, listed as ATV 40",−8.2 (3.9) %
same,"Calculated LDL-C LS mean (SE), Change from Baseline","Week 16, listed as ATV 40",−10.9 (4.3)
same,"Calculated LDL-C LS mean (SE), Value (mg/dL)","Week 16, listed as ATV 40",90.9 (4.3) mg/dL
same,"Calculated LDL-C LS mean (SE), % Change from Baseline","Week 16, listed as ATV 80",−8.0 (3.4) %
same,"Calculated LDL-C LS mean (SE), Change from Baseline","Week 16, listed as ATV 80",−11.3 (3.8)
same,"Calculated LDL-C LS mean (SE), Value (mg/dL)","Week 16, listed as ATV 80",97.4 (3.8) mg/dL
same,"Calculated LDL-C LS mean (SE), % Change from Baseline","Week 24, listed as ATV 40",−5.0 (4.6) %
same,"Calculated LDL-C LS mean (SE), Change from Baseline","Week 24, listed as ATV 40",−7.9 (4.7)
same,"Calculated LDL-C LS mean (SE), Value (mg/dL)","Week 24, listed as ATV 40",93.9 (4.7) mg/dL
same,"Calculated LDL-C LS mean (SE), % Change from Baseline","Week 24, listed as ATV 80",−4.8 (4.2) %
same,"Calculated LDL-C LS mean (SE), Change from Baseline","Week 24, listed as ATV 80",−8.7 (4.5)
same,"Calculated LDL-C LS mean (SE), Value (mg/dL)","Week 24, listed as ATV 80",100.0 (4.5) mg/dL
same,reduced LDL-C levels by,"atorvastatin 20 mg regimen, add-on ezetimibe or doubling of atorvastatin dose",5.0%
same,reduced LDL-C levels by,"atorvastatin 40 mg regimen, add-on ezetimibe, doubling of atorvastatin dose or switch to rosuvastatin 40 mg",4.8%
same,Proportion of Patients Reaching LDL-C goal (%),listed as ATV 40,34.5%
same,Proportion of Patients Reaching LDL-C goal (%),listed as ATV 80,15.4%
mAb316P + ATV 20: treatment arm: mAb316P 75/150 mg Q2W + atorvastatin 20 mg daily,"LDL-C W24 % change from baseline, LS mean (SE)",,−44.1%
same,"Calculated LDL-C LS mean (SE), % Change from Baseline",Week 4,−53.3 (3.4) %
same,"Calculated LDL-C LS mean (SE), Change from Baseline",Week 4,−55.8 (3.5)
same,"Calculated LDL-C LS mean (SE), Value (mg/dL)",Week 4,46.0 (3.5) mg/dL
same,"Calculated LDL-C LS mean (SE), % Change from Baseline",Week 8,−51.2 (3.8) %
same,"Calculated LDL-C LS mean (SE), Change from Baseline",Week 8,−51.4 (4.1)
same,"Calculated LDL-C LS mean (SE), Value (mg/dL)",Week 8,50.4 (4.1) mg/dL
same,"Calculated LDL-C LS mean (SE), % Change from Baseline",Week 12,−48.4 (3.8) %
same,"Calculated LDL-C LS mean (SE), Change from Baseline",Week 12,−49.0 (4.2)
same,"Calculated LDL-C LS mean (SE), Value (mg/dL)",Week 12,52.8 (4.2) mg/dL
same,"Calculated LDL-C LS mean (SE), % Change from Baseline",Week 16,−53.8 (3.9) %
same,"Calculated LDL-C LS mean (SE), Change from Baseline",Week 16,−54.8 (4.3)
same,"Calculated LDL-C LS mean (SE), Value (mg/dL)",Week 16,47.0 (4.3) mg/dL
same,"Calculated LDL-C LS mean (SE), % Change from Baseline",Week 24,−44.1 (4.5) %
same,"Calculated LDL-C LS mean (SE), Change from Baseline",Week 24,−47.5 (4.7)
same,"Calculated LDL-C LS mean (SE), Value (mg/dL)",Week 24,54.3 (4.7) mg/dL
same,Proportion of Patients Reaching LDL-C goal (%),,87.2%
mAb316P + ATV 40: treatment arm: mAb316P 75/150 mg Q2W + atorvastatin 40 mg daily,"LDL-C W24 % change from baseline, LS mean (SE)",,−54.0%
same,"Calculated LDL-C LS mean (SE), % Change from Baseline",Week 4,−56.5 (2.8) %
same,"Calculated LDL-C LS mean (SE), Change from Baseline",Week 4,−63.2 (2.9)
same,"Calculated LDL-C LS mean (SE), Value (mg/dL)",Week 4,45.5 (2.9) mg/dL
same,"Calculated LDL-C LS mean (SE), % Change from Baseline",Week 8,−55.7 (3.2) %
same,"Calculated LDL-C LS mean (SE), Change from Baseline",Week 8,−63.4 (3.3)
same,"Calculated LDL-C LS mean (SE), Value (mg/dL)",Week 8,45.3 (3.3) mg/dL
same,"Calculated LDL-C LS mean (SE), % Change from Baseline",Week 12,−50.5 (3.2) %
same,"Calculated LDL-C LS mean (SE), Change from Baseline",Week 12,−56.9 (3.5)
same,"Calculated LDL-C LS mean (SE), Value (mg/dL)",Week 12,51.8 (3.5) mg/dL
same,"Calculated LDL-C LS mean (SE), % Change from Baseline",Week 16,−56.9 (3.5) %
same,"Calculated LDL-C LS mean (SE), Change from Baseline",Week 16,−64.3 (3.9)
same,"Calculated LDL-C LS mean (SE), Value (mg/dL)",Week 16,44.4 (3.9) mg/dL
same,"Calculated LDL-C LS mean (SE), % Change from Baseline",Week 24,−54.0 (4.3) %
same,"Calculated LDL-C LS mean (SE), Change from Baseline",Week 24,−62.3 (4.6)
same,"Calculated LDL-C LS mean (SE), Value (mg/dL)",Week 24,46.4 (4.6) mg/dL
same,Proportion of Patients Reaching LDL-C goal (%),,82.4%

# Reference: patent US20150231236A1, “METHODS FOR TREATING PATIENTS WITH HYPERCHOLESTEROLEMIA THAT IS NOT ADEQUATELY CONTROLLED BY MODERATE-DOSE STATIN THERAPY” (Regeneron Pharmaceuticals, Inc., priority 2014, published 2015)
